Measurements: publication PMC5218480 (PLoS ONE, 2017)

Test system: MV-4-11 cells
Experiment: Gene expression microarray analysis (Affymetrix PrimeView) and GSEA
Assay type: cell-based, human
Parameters: RFU PODN (11730768_x_at) / Fold change /veh PODN (11730768_x_at) / RFU LINC00158 (11744669_a_at) / Fold change /veh LINC00158 (11744669_a_at) / RFU DUSP10 (11751237_a_at) / Fold change /veh DUSP10 (11751237_a_at) / RFU ID3 (11757404_x_at) / Fold change /veh ID3 (11757404_x_at) / RFU PLEKHG5 (11737974_s_at) / Fold change /veh PLEKHG5 (11737974_s_at) / RFU LRRC4B (11730491_at) / Fold change /veh LRRC4B (11730491_at) / RFU GIMAP4 (11747438_a_at) / Fold change /veh GIMAP4 (11747438_a_at) / RFU KRT8 (11758183_x_at) / Fold change /veh KRT8 (11758183_x_at) / RFU CNN1 (11734310_a_at) / Fold change /veh CNN1 (11734310_a_at) / RFU VPS37D (11726825_at) / Fold change /veh VPS37D (11726825_at) / RFU C10orf10 (11716522_x_at) / Fold change /veh C10orf10 (11716522_x_at) / RFU KIR2DL2 /// KIR2DL4 /// KIR2DL5A /// KIR2DL5B /// KIR2DS1 /// KIR2DS2 /// KIR2DS3 /// KIR2DS4 /// KIR3DL3 /// KIR3DL3 /// KIR3DS1 (11738374_at) / Fold change /veh KIR2DL2 /// KIR2DL4 /// KIR2DL5A /// KIR2DL5B /// KIR2DS1 /// KIR2DS2 /// KIR2DS3 /// KIR2DS4 /// KIR3DL3 /// KIR3DL3 /// KIR3DS1 (11738374_at) / RFU C1QL1 (11718748_at) / Fold change /veh C1QL1 (11718748_at) / RFU TMPRSS4 (11747572_a_at) / Fold change /veh TMPRSS4 (11747572_a_at) / RFU HAMP (11756126_x_at) / Fold change /veh HAMP (11756126_x_at) / RFU RNFT2 (11725882_a_at) / Fold change /veh RNFT2 (11725882_a_at) / RFU NR4A2 (11747474_a_at) / Fold change /veh NR4A2 (11747474_a_at) / RFU ABCC12 (11746883_a_at) / Fold change /veh ABCC12 (11746883_a_at) / RFU TMEM136 (11760407_x_at) / Fold change /veh TMEM136 (11760407_x_at) / RFU CLDN22 /// WWC2 (11732394_at) / Fold change /veh CLDN22 /// WWC2 (11732394_at) / RFU HLA-DPB1 (11760878_x_at) / Fold change /veh HLA-DPB1 (11760878_x_at) / RFU SPINT1 (11716480_a_at) / Fold change /veh SPINT1 (11716480_a_at) / RFU GAP43 (11754022_s_at) / Fold change /veh GAP43 (11754022_s_at) / RFU A4GNT (11735810_at) / Fold change /veh A4GNT (11735810_at) / RFU PRB3 (11715151_x_at) / Fold change /veh PRB3 (11715151_x_at) / RFU TUBB4B (11761932_at) / Fold change /veh TUBB4B (11761932_at) / RFU CAPN14 (11732068_a_at) / Fold change /veh CAPN14 (11732068_a_at) / RFU TMCC2 (11721928_a_at) / Fold change /veh TMCC2 (11721928_a_at) / RFU IRGQ (11745062_a_at) / Fold change /veh IRGQ (11745062_a_at) / RFU FAM174B (11720279_a_at) / Fold change /veh FAM174B (11720279_a_at) / RFU TMPRSS4 (11748680_a_at) / Fold change /veh TMPRSS4 (11748680_a_at) / RFU FAM212B (11763350_a_at) / Fold change /veh FAM212B (11763350_a_at) / RFU PLEKHG5 (11743358_a_at) / Fold change /veh PLEKHG5 (11743358_a_at) / RFU ZSCAN30 (11745921_a_at) / Fold change /veh ZSCAN30 (11745921_a_at) / RFU CMKLR1 (11741424_a_at) / Fold change /veh CMKLR1 (11741424_a_at) / RFU LOC101060620 /// MAPK8IP1 (11723275_at) / Fold change /veh LOC101060620 /// MAPK8IP1 (11723275_at) / RFU SPTSSB (11747773_x_at) / Fold change /veh SPTSSB (11747773_x_at) / RFU PRSS12 (11739890_at) / Fold change /veh PRSS12 (11739890_at) / RFU BIN1 (11741810_x_at) / Fold change /veh BIN1 (11741810_x_at) / RFU WNT11 (11732464_a_at) / Fold change /veh WNT11 (11732464_a_at) / RFU C10orf10 (11716521_a_at) / Fold change /veh C10orf10 (11716521_a_at) / RFU C5orf56 (11738089_at) / Fold change /veh C5orf56 (11738089_at) / RFU CYB561 (11721691_x_at) / Fold change /veh CYB561 (11721691_x_at) / RFU ANKRD19P (11752326_a_at) / Fold change /veh ANKRD19P (11752326_a_at) / RFU OR2T12 /// OR2T33 /// OR2T8 (11738714_s_at) / Fold change /veh OR2T12 /// OR2T33 /// OR2T8 (11738714_s_at) / RFU VCAN (11748164_a_at) / Fold change /veh VCAN (11748164_a_at) / RFU JSRP1 (11732532_at) / Fold change /veh JSRP1 (11732532_at) / RFU KRTAP10-11 (11738290_x_at) / Fold change /veh KRTAP10-11 (11738290_x_at) / RFU MYO3A (11730013_a_at) / Fold change /veh MYO3A (11730013_a_at) / RFU EBF3 (11725865_a_at) / Fold change /veh EBF3 (11725865_a_at) / RFU CAMK2N1 (11719241_x_at) / Fold change /veh CAMK2N1 (11719241_x_at) / RFU C5orf56 (11738088_a_at) / Fold change /veh C5orf56 (11738088_a_at) / RFU OLFML3 (11715873_a_at) / Fold change /veh OLFML3 (11715873_a_at) / RFU LOC100653217 /// NTM (11731650_a_at) / Fold change /veh LOC100653217 /// NTM (11731650_a_at) / RFU MAPK11 (11762145_a_at) / Fold change /veh MAPK11 (11762145_a_at) / RFU FIZ1 (11724087_x_at) / Fold change /veh FIZ1 (11724087_x_at) / RFU OASL (11726364_x_at) / Fold change /veh OASL (11726364_x_at) / RFU SOX15 (11748057_x_at) / Fold change /veh SOX15 (11748057_x_at) / RFU CD79A (11719716_a_at) / Fold change /veh CD79A (11719716_a_at) / RFU HIST1H1D (11736915_at) / Fold change /veh HIST1H1D (11736915_at) / RFU CASKIN2 (11723855_a_at) / Fold change /veh CASKIN2 (11723855_a_at) / RFU LOC730098 (11760151_x_at) / Fold change /veh LOC730098 (11760151_x_at) / RFU OR4N2 (11742367_at) / Fold change /veh OR4N2 (11742367_at) / RFU PRRT2 (11749266_a_at) / Fold change /veh PRRT2 (11749266_a_at) / RFU SNX32 (11753110_a_at) / Fold change /veh SNX32 (11753110_a_at) / RFU CDHR5 (11726645_a_at) / Fold change /veh CDHR5 (11726645_a_at) / RFU RCAN1 (11760418_a_at) / Fold change /veh RCAN1 (11760418_a_at) / RFU FAM167A (11723789_a_at) / Fold change /veh FAM167A (11723789_a_at) / RFU FAM26E (11764081_at) / Fold change /veh FAM26E (11764081_at) / RFU ISYNA1 (11749810_s_at) / Fold change /veh ISYNA1 (11749810_s_at) / RFU ACY1 (11761880_at) / Fold change /veh ACY1 (11761880_at) / RFU 11764098_at / Fold change /veh 11764098_at / RFU SAMD14 (11745864_x_at) / Fold change /veh SAMD14 (11745864_x_at) / RFU NPB (11741838_a_at) / Fold change /veh NPB (11741838_a_at) / RFU TMPRSS6 (11731388_a_at) / Fold change /veh TMPRSS6 (11731388_a_at) / RFU KRTAP10-2 (11738614_at) / Fold change /veh KRTAP10-2 (11738614_at) / RFU ARHGAP8 /// PRR5-ARHGAP8 (11727945_x_at) / Fold change /veh ARHGAP8 /// PRR5-ARHGAP8 (11727945_x_at) / RFU KRTAP5-7 /// NADSYN1 (11734609_at) / Fold change /veh KRTAP5-7 /// NADSYN1 (11734609_at) / RFU RASL12 (11751679_a_at) / Fold change /veh RASL12 (11751679_a_at) / RFU CDKN2B (11736163_a_at) / Fold change /veh CDKN2B (11736163_a_at) / RFU PRF1 (11729649_at) / Fold change /veh PRF1 (11729649_at) / RFU, ZNF638 /// ZNF638-IT1 / Fold change vs veh, ZNF638 /// ZNF638-IT1 / RFU, PANK3 / Fold change vs veh, PANK3 / RFU, SH3YL1 / Fold change vs veh, SH3YL1 / RFU, ZEB2 / Fold change vs veh, ZEB2 / RFU, NRIP1 / Fold change vs veh, NRIP1 / RFU, PTTG1IP / Fold change vs veh, PTTG1IP / RFU, CAPN2 / Fold change vs veh, CAPN2 / RFU, MED14 / Fold change vs veh, MED14 / RFU, SNORA58 / Fold change vs veh, SNORA58 / RFU, C1orf63 / Fold change vs veh, C1orf63 / RFU, LRRFIP1 / Fold change vs veh, LRRFIP1 / RFU, NDUFAF7 / Fold change vs veh, NDUFAF7 / RFU, SLC12A2 / Fold change vs veh, SLC12A2 / RFU, IBTK / Fold change vs veh, IBTK / RFU, ESF1 / Fold change vs veh, ESF1 / Fold change vs veh, TMEM50B / RFU, TAOK1 / Fold change vs veh, TAOK1 / RFU, ACBD3 / Fold change vs veh, ACBD3 / RFU, TMA16 / Fold change vs veh, TMA16 / RFU, RWDD3 / Fold change vs veh, RWDD3 / RFU, BCAT1 / Fold change vs veh, BCAT1 / RFU, EDEM3 / Fold change vs veh, EDEM3 / RFU, TMEM33 / Fold change vs veh, TMEM33 / RFU, WDR75 / Fold change vs veh, WDR75 / RFU, AHCTF1 / Fold change vs veh, AHCTF1 / RFU, TFRC / Fold change vs veh, TFRC / RFU, ZDHHC17 / Fold change vs veh, ZDHHC17 / RFU, NOM1 / Fold change vs veh, NOM1 / RFU, ARL8B / Fold change vs veh, ARL8B / RFU, ZBTB11 / Fold change vs veh, ZBTB11 / RFU, TAMM41 / Fold change vs veh, TAMM41 / RFU, KIAA1704 /// LOC100996395 / Fold change vs veh, KIAA1704 /// LOC100996395 / RFU, ING1 / Fold change vs veh, ING1 / RFU, TRMT61B / Fold change vs veh, TRMT61B / RFU, FUBP3 / Fold change vs veh, FUBP3 / RFU, TP53 / Fold change vs veh, TP53 / RFU, TNKS2 / Fold change vs veh, TNKS2 / RFU, ZFP14 / Fold change vs veh, ZFP14 / RFU, ACTR2 / Fold change vs veh, ACTR2 / RFU, PPP3R1 / Fold change vs veh, PPP3R1 / RFU, PIK3R1 / Fold change vs veh, PIK3R1 / RFU, HNRNPA1 / Fold change vs veh, HNRNPA1 / RFU, RNF170 / Fold change vs veh, RNF170 / RFU, ZNF28 / Fold change vs veh, ZNF28 / RFU, RNGTT / Fold change vs veh, RNGTT / RFU, OGT / Fold change vs veh, OGT / RFU, BRD1 / Fold change vs veh, BRD1 / RFU, MARS / Fold change vs veh, MARS / RFU, ZNF655 / Fold change vs veh, ZNF655 / RFU, FAHD1 / Fold change vs veh, FAHD1 / RFU, BDP1 / Fold change vs veh, BDP1 / RFU, LRRCC1 / Fold change vs veh, LRRCC1 / RFU, ARID1A / Fold change vs veh, ARID1A / RFU, ZNF146 / Fold change vs veh, ZNF146 / RFU, ZNF330 / Fold change vs veh, ZNF330 / RFU, GPN3 / Fold change vs veh, GPN3 / RFU, C9orf123 / Fold change vs veh, C9orf123 / RFU, N4BP2L2 / Fold change vs veh, N4BP2L2 / RFU, ARFIP1 / Fold change vs veh, ARFIP1 / RFU, FAM179B / Fold change vs veh, FAM179B / RFU, BCL10 / Fold change vs veh, BCL10 / RFU, UHRF1BP1L / Fold change vs veh, UHRF1BP1L / RFU, BET1 / Fold change vs veh, BET1 / RFU, CNOT2 / Fold change vs veh, CNOT2 / RFU, ZNF268 / Fold change vs veh, ZNF268 / Fold change vs veh, ZNF507 / RFU, DGCR2 / Fold change vs veh, DGCR2 / RFU, WDSUB1 / Fold change vs veh, WDSUB1 / Fold change vs veh, HSP90B1 /// MIR3652 / RFU, ADSS / Fold change vs veh, ADSS / RFU, GK / Fold change vs veh, GK / RFU, ZNF148 / Fold change vs veh, ZNF148 / RFU, TAF9 / Fold change vs veh, TAF9 / RFU, SLC1A5 / Fold change vs veh, SLC1A5 / RFU, SLMO2 / Fold change vs veh, SLMO2 / RFU, ABCC4 / Fold change vs veh, ABCC4 / RFU, LOC101060439 /// RAP1B / Fold change vs veh, LOC101060439 /// RAP1B / RFU, RFX7 / Fold change vs veh, RFX7 / RFU, GTPBP10 / Fold change vs veh, GTPBP10 / RFU, CNEP1R1 / Fold change vs veh, CNEP1R1 / RFU, BIVM-ERCC5 /// ERCC5 / Fold change vs veh, BIVM-ERCC5 /// ERCC5 / RFU, ILF3 / Fold change vs veh, ILF3 / RFU 11762660_at / Fold change /veh 11762660_at / RFU VCAN (11757783_s_at) / Fold change /veh VCAN (11757783_s_at) / RFU DDX43 (11728927_at) / Fold change /veh DDX43 (11728927_at) / RFU KRT8 (11758188_x_at) / Fold change /veh KRT8 (11758188_x_at) / RFU NKD1 (11759106_at) / Fold change /veh NKD1 (11759106_at) / RFU SRD5A1 (11742802_a_at) / Fold change /veh SRD5A1 (11742802_a_at) / RFU TPSAB1 /// TPSB2 (11721975_s_at) / Fold change /veh TPSAB1 /// TPSB2 (11721975_s_at) / RFU GSTM3 (11746129_a_at) / Fold change /veh GSTM3 (11746129_a_at) / RFU IL23R (11737362_x_at) / Fold change /veh IL23R (11737362_x_at) / RFU TMEM51 (11727254_a_at) / Fold change /veh TMEM51 (11727254_a_at) / RFU PIWIL2 (11732686_x_at) / Fold change /veh PIWIL2 (11732686_x_at) / RFU ORM1 (11744905_x_at) / Fold change /veh ORM1 (11744905_x_at) / RFU CCDC152 (11743942_at) / Fold change /veh CCDC152 (11743942_at) / RFU ECM1 (11717891_a_at) / Fold change /veh ECM1 (11717891_a_at) / RFU IL23R (11748794_a_at) / Fold change /veh IL23R (11748794_a_at) / RFU TNFAIP8L3 (11732012_x_at) / Fold change /veh TNFAIP8L3 (11732012_x_at) / RFU MBOAT4 (11741988_at) / Fold change /veh MBOAT4 (11741988_at) / RFU 11764193_at / Fold change /veh 11764193_at / RFU TMEM53 (11763286_at) / Fold change /veh TMEM53 (11763286_at) / RFU MAGEB2 (11727129_at) / Fold change /veh MAGEB2 (11727129_at) / RFU TMEM200A (11744735_a_at) / Fold change /veh TMEM200A (11744735_a_at) / RFU CCDC152 (11751479_a_at) / Fold change /veh CCDC152 (11751479_a_at) / RFU FAM211A (11726209_a_at) / Fold change /veh FAM211A (11726209_a_at) / RFU RGS16 (11746705_a_at) / Fold change /veh RGS16 (11746705_a_at) / RFU VCAN (11755009_s_at) / Fold change /veh VCAN (11755009_s_at) / RFU RHOB (11743442_s_at) / Fold change /veh RHOB (11743442_s_at) / RFU RGS16 (11720943_a_at) / Fold change /veh RGS16 (11720943_a_at) / RFU RGS16 (11720944_at) / Fold change /veh RGS16 (11720944_at) / RFU, VPS4B / Fold change vs veh, VPS4B / RFU, CREB1 / Fold change vs veh, CREB1 / RFU, DNAJC13 / Fold change vs veh, DNAJC13 / RFU, GNAQ / Fold change vs veh, GNAQ / RFU, CDK5R1 / Fold change vs veh, CDK5R1 / RFU, ZRANB3 / Fold change vs veh, ZRANB3 / RFU, CUL4A / Fold change vs veh, CUL4A / RFU, CCNY / Fold change vs veh, CCNY / RFU, UFL1 / Fold change vs veh, UFL1 / RFU, COG3 / Fold change vs veh, COG3 / RFU, DIAPH2 / Fold change vs veh, DIAPH2 / RFU, SKA2 / Fold change vs veh, SKA2 / RFU, AFF3 / Fold change vs veh, AFF3 / RFU, LMF1 / Fold change vs veh, LMF1 / RFU, IPO11 / Fold change vs veh, IPO11 / RFU, DFFB / Fold change vs veh, DFFB / RFU, FOXP1 / Fold change vs veh, FOXP1 / RFU, CARD8 / Fold change vs veh, CARD8 / RFU, STRN3 / Fold change vs veh, STRN3 / RFU, ADK / Fold change vs veh, ADK / RFU, RASSF2 / Fold change vs veh, RASSF2 / RFU, WIPF1 / Fold change vs veh, WIPF1 / RFU, LARP1B / Fold change vs veh, LARP1B / RFU, RASA1 / Fold change vs veh, RASA1 / RFU, RB1 / Fold change vs veh, RB1 / RFU, PPFIA1 / Fold change vs veh, PPFIA1 / RFU, MAT2A / Fold change vs veh, MAT2A / RFU, CCT5 / Fold change vs veh, CCT5 / RFU, WDR92 / Fold change vs veh, WDR92 / RFU, CUX1 / Fold change vs veh, CUX1 / RFU, TTC7A / Fold change vs veh, TTC7A / RFU, TMEM135 / Fold change vs veh, TMEM135 / RFU, DEPTOR / Fold change vs veh, DEPTOR / RFU, CPM / Fold change vs veh, CPM / RFU, DNAJB6 / Fold change vs veh, DNAJB6 / RFU, CACNA2D3 / Fold change vs veh, CACNA2D3 / RFU, DTX4 / Fold change vs veh, DTX4 / RFU, TFCP2 / Fold change vs veh, TFCP2 / RFU, GMCL1 /// GMCL1P1 / Fold change vs veh, GMCL1 /// GMCL1P1 / RFU, AEBP2 / Fold change vs veh, AEBP2 / RFU, SNHG1 /// SNORD22 /// SNORD25 /// SNORD26 /// SNORD27 /// SNORD28 /// SNORD29 /// SNORD31 / Fold change vs veh, SNHG1 /// SNORD22 /// SNORD25 /// SNORD26 /// SNORD27 /// SNORD28 /// SNORD29 /// SNORD31 / Fold change (Aza/veh), C12orf56 (ProbeSet 11735607_a_at) / Fold change (ACY-1035/veh), C12orf56 (ProbeSet 11735607_a_at) / Fold change (Aza/veh), FGFR1OP (ProbeSet 11751329_s_at) / Fold change (ACY-1035/veh), FGFR1OP (ProbeSet 11751329_s_at) / Fold change (Aza/veh), VPS36 (ProbeSet 11739960_a_at) / Fold change (ACY-1035/veh), VPS36 (ProbeSet 11739960_a_at) / RFU SYPL1 (11715823_x_at) / Fold change /veh SYPL1 (11715823_x_at) / RFU IGFBP7 (11715501_s_at) / Fold change /veh IGFBP7 (11715501_s_at) / RFU REEP3 (11722064_at) / Fold change /veh REEP3 (11722064_at) / RFU IGLL1 (11728026_x_at) / Fold change /veh IGLL1 (11728026_x_at): dose or concentration left out as unconfirmed
Conditions: ProbeSet 11732306_x_at; LIST D

Nc1ncn([C@@H]2O[C@H](CO)[C@@H](O)[C@H]2O)c(=O)n1 [azacitidine]
RFU, CREB1: 273.21 RFU
